For one compound, IC50 results are on record in US5098932A, “Cyclic ether derivatives” (Imperial Chemical Industries PLC, ICI Pharma, priority 1988, dated 1992).

Each structure is given as a SMILES string.

The subject of one experiment is 5-LO (LTB4). Nature of the experiment: In vitro heparinised human blood assay, A23187 challenge, LTB4 radioimmunoassay, test b). Type of experiment: cell-based. The procedure: (§1) b) An in vitro assay system involving incubating a test compound with heparinised human blood, prior to challenge with the calcium ionophore A23187 and then indirectly measuring the inhibitory effects on 5-LO by assaying the amount of LTB4 using the specific radioimmunoassay described by Carey and Forder (F. Carey and R. A. Forder, Brit. J. Pharmacol. 1985, 84, 34P) which involves the use of a protein-LTB4 conjugate produced using the procedure of Young et alia (Prostaglandins, 1983, 26(4),605-613). The effects of a test compound on the enzyme cyclooxygenase (which is involved in the alternative metabolic pathway for arachidonic acid and gives rise to prostaglandins, thromboxanes and related metabolites) may be measured at the same time using the specific radioimmunoassay for thromboxane B2 (T×B2) described by Carey and Forder (see above). This test provides an indication of the effects of a test compound against 5-LO and also cyclooxygenase in the presence of blood cells and proteins. It permits the selectivity of the inhibitory effect on 5-LO or cyclooxygenase to be assessed.

Another experiment concerns cyclooxygenase (TxB2). Description: In vitro heparinised human blood assay, A23187 challenge, TxB2 radioimmunoassay, test b). Type of experiment: cell-based. The procedure: as §1

The IC50 is the concentration needed to halve the response being measured. Read a low IC50 as higher potency. As to `CCC1(c2cccc(OCc3ccc4ccccc4c3)c2)COC(C)(C)O1` (centres unmarked) [4-ethyl-2,2-dimethyl-4-[3-(naphth-2-ylmethoxy)phenyl]-1,3-dioxolane], the IC50 was 100 nM in the experiment on 5-LO (LTB4) and > 40 µM in the experiment with cyclooxygenase (TxB2).
